Legend:
IDH1 R132C = IDH1 R132C (Homo sapiens (Human), UniProt O75874, R132C); assay: Biochemical assay for inhibition of mutant IDH1 R132C; details: tested in triplet
Description: The present disclosure provides a biochemical assay method for detecting the IDH inhibition and selectivity of the compounds by detecting IDH enzyme activity directly.
Wild-type IDH enzyme could convert NADP^+ to NADPH when it catalyzes the α-KG producing reaction. Mutant IDH enzyme could convert NADPH to NADP^+ when it catalyzes the D-2-HG producing reaction. So the activity of wild-type and mutant IDH1/2 could be measured by monitoring NADPH level change: in the reaction catalyzed by wild-type IDH1/2, the newly generated NADPH is utilized instantly by coupled diaphorase-resazurin reaction to generate resorufin which is fluorescent (at Excitation 544 nm, Emission 590 nm) and thus NADPH is monitored indirectly; while in the reaction catalyzed by mutant IDH1/2, NADPH is directly monitored as it is fluorescent (at Excitation 340 nm, Emission 460 nm). By monitoring the change of NADPH level in the reaction, the enzyme activity could be determined rapidly and efficiently, IC50 of a compound could also be assayed.
The test compounds were prepared into 50 mM stock solutions in DMSO and stored at −20° C. Each test compound stock was further diluted to obtain a 100× stock solution at a concentration of 200 μM, 100 μM, 50 μM, 25 μM, 12.5 jμM, 6.25 μM and 3.125 μM, respectively, for the final use on the day of test.
Inhibition of Mutant IDHJ (R132H or R132C):
Solution A was prepared by combining 1 M Tris-HCl pH7.5 (300 μL), 5 M NaCl (450 μL), 1 M MgCl2 (150 μL), 1 M DTT (15 μL), 20 mg/mL BSA (37.5 μL), 20 mM NADPH (20 μL), and 0.5 mM α-KG (40 μL), followed by adding deionized water to a final volume of 15 mL.
Reaction buffer was prepared by combining 1 M Tris-HCl pH 7.5 (200 μL), 5 M NaCl (300 μL), 1 M MgCl2 (100 μL), 1 M DTT (10 μL) and 20 mg/mL BSA (25 μL), followed by adding deionized water to a final volume of 10 mL.
Solution B was prepared by combining the reaction buffer (5 mL) and […] IDH1-R132H (5.21 μL) or 107 μM IDH1-R132C (4.67 μL).
148 μL Solution A was added into each sample well of a 96-well plate P1, and then 2 μL of the test compound solution at each concentration and 2 μL of DMSO (negative control/blank) were added into individual sample well respectively. 50 μL of Solution B was added into each of the sample wells having test compounds and one sample well having DMSO only, and 50 μL of reaction buffer was added into another sample well having DMSO only, respectively. P1 was put into BioTek Synergy H4 Microplate reader (BioTek Instruments Inc., Winooski, U.S.), and the program was set as follows: 37° C., shake plate 5 seconds, run kinetic mode, total detection time 20 min, detection intervals 40 seconds, detection mode fluorescence (at Excitation 340 nm, Emission 460 nm). The data were exported, the relative enzyme activity and the half-maximal inhibitory concentration (IC50) for the test compound were calculated. Relative enzyme activity was calculated as the absolute value of the slope of the Emission 460 reads of each well plotted against time (which represents the conversion rate of ca-KG to 2-HG through IDH1 modulated utilization of NADPH). The Dose-response curve was drawn and the IC50 was calculated via fitting. The IDH inhibition and selectivity of each test compound can be evaluated according to the effect of the compounds on the IDH enzyme activity.
The IDH inhibition activity of the compounds were assessed according to Test 5 of the Biological evaluation section. The test for mutant IDH1 R132H/R132C inhibition of each compound was carried out in triplet. For IDH1 R132H, the enzyme activity of exemplary Compounds 16, 21, 22, 23, 24 and 31 is plotted as a function of logarithm of the concentration of the compound in FIGS. 8A-8C, 9A-9C, 10A-10C, 11A-11C, 12A-12C and 13A-13C, respectively. […]

[1] = Metabolic stability in dog liver microsome; details: for K: Mean; for microsomal CLint at 1 μM / half-life at 1 μM: microsomes, pH 7.4
Procedure: The liver microsomes of mouse, rat, dog, monkey and human were purchased from Corning Inc., and were stored at −60° C. prior to use. The acetonitrile and NADPH were purchased from Honeywell International Inc. (New Jersey, U.S.) and Roche Inc. (Basel, Swiss).
Reactions were initiated by adding NADPH to a final concentration of 1 mM. The final volume of each reaction mixture was 0.2 ml, and all reactions were performed in duplicate. At each set time point (0, 5, 15, 30 and 60 min), a small aliquot (e.g., 20 μl) was transferred from the reaction system into ice-cold internal standard (IS) containing acetonitrile to quench the reaction and to precipitate the protein. After vortex and centrifuge at 3700 rpm for 10 min, the supernatant was injected into LC-MS/MS for analysis.
In vitro microsomal clearance was estimated based on determination of elimination half-life (T1/2) of compounds disappearance from their initial concentrations. Peak area ratios of each compound (test or control) to IS was calculated. Ln (% Control) versus Incubation Time (min) curve was plotted, and the slope of a linear fitting line was calculated. Drug elimination rate constant k (min^−1), T1/2 (min), and in vitro intrinsic clearance CLint (mL·min^−1·mg^−1 proteins) was calculated according to the following equations: k=−slope T1/2=0.693/k CLint=k/Cprotein where Cprotein (mg·mL^−1) is the microsomal protein concentration in the incubation system. Test 3: Metabolic Stability Assay in Mouse Plasma
In this study, the metabolic stability of the compounds was assessed in mouse, rat, dog, monkey and human liver microsome according to the method disclosed in Test 2 of the Biological evaluation section.

Sequence of IDH1 R132C (O75874 whole entry R132C): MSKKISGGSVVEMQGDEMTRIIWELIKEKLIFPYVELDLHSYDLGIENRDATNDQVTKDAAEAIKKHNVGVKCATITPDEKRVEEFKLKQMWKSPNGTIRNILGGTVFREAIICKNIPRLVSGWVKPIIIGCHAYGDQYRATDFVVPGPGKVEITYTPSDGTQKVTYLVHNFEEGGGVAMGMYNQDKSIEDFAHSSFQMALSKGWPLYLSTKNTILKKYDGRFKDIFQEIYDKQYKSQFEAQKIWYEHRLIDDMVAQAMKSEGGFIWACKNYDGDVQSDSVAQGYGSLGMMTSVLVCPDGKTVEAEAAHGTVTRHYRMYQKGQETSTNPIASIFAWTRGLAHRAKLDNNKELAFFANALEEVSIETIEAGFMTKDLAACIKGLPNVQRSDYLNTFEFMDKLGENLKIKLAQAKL

SMILES: CCN1Cc2c(ccnc2N[C@@H](C)c2ccc(Br)cc2)C1=O [Compound 1, (S)-4-(1-(4-bromophenyl)ethylamino)-2-ethyl-2,3-dihydro-1H-pyrrolo[3,4-c]pyridin-1-one]
- IC50 (IDH1 R132C): 10 to 15 µM

SMILES: CCN1Cc2c(ccnc2N[C@@H](C)c2ccc(F)cc2)C1=O [Compound 2, (S)-2-ethyl-4-(1-(4-fluorophenyl)ethylamino)-2,3-dihydro-1H-pyrrolo[3,4-c]pyridin-1-one]
- IC50 (IDH1 R132C): 10 to 15 µM

SMILES: CCN1Cc2c(ccnc2N[C@@H](C)c2ccc(C)cc2)C1=O [Compound 3, (S)-2-ethyl-4-(1-p-tolylethylamino)-2,3-dihydro-1H-pyrrolo[3,4-c]pyridin-1-one]
- IC50 (IDH1 R132C): 10 to 15 µM

SMILES: C[C@H](Nc1nccc2c1CN(C1CC1)C2=O)c1ccccc1 [Compound 4, (S)-2-cyclopropyl-4-(1-phenylethylamino)-2,3-dihydro-1H-pyrrolo[3,4-c]pyridin-1-one]
- IC50 (IDH1 R132C): 10 to 15 µM

SMILES: CCCCN1Cc2c(ccnc2N[C@@H](C)c2ccccc2)C1=O [Compound 5, (S)-2-butyl-4-(1-phenylethylamino)-2,3-dihydro-1H-pyrrolo[3,4-c]pyridin-1-one]
- IC50 (IDH1 R132C): 10 to 15 µM

SMILES: C[C@H](Nc1nccc2c1CN(Cc1ccccc1)C2=O)c1ccccc1 [Compound 6, (S)-2-benzyl-4-(1-phenylethylamino)-2,3-dihydro-1H-pyrrolo[3,4-c]pyridin-1-one]
- IC50 (IDH1 R132C): 10 to 15 µM

SMILES: COc1ccc(CN2Cc3c(ccnc3N[C@@H](C)c3ccccc3)C2=O)cc1 [Compound 7, (S)-2-(4-methoxybenzyl)-4-(1-phenylethylamino)-2,3-dihydro-1H-pyrrolo[3,4-c]pyridin-1-one]
- IC50 (IDH1 R132C): 10 to 15 µM

SMILES: CC(C)N1Cc2c(ccnc2N[C@@H](C)c2ccccc2)C1=O [Compound 8, (S)-2-isopropyl-4-(1-phenylethylamino)-2,3-dihydro-1H-pyrrolo[3,4-c]pyridin-1-one]
- IC50 (IDH1 R132C): 10 to 15 µM

SMILES: COCCN1Cc2c(ccnc2N[C@@H](C)c2ccccc2)C1=O [Compound 9, (S)-2-(2-methoxyethyl)-4-(1-phenylethylamino)-2,3-dihydro-1H-pyrrolo[3,4-c]pyridin-1-one]
- IC50 (IDH1 R132C): 10 to 15 µM

SMILES: CCN1Cc2c(ccnc2N[C@@H](C)c2ccccc2)C1=O [Compound 10, (S)-2-ethyl-4-(1-phenylethylamino)-2,3-dihydro-1H-pyrrolo[3,4-c]pyridin-1-one]
- IC50 (IDH1 R132C): 10 to 15 µM

SMILES: CCN1Cc2c(ccnc2N[C@@H](C)c2ccc(OC)cc2)C1=O [Compound 11, (S)-2-ethyl-4-(1-(4-methoxyphenyl)ethylamino)-2,3-dihydro-1H-pyrrolo[3,4-c]pyridin-1-one]
- IC50 (IDH1 R132C): 10 to 15 µM

SMILES: CCOC(=O)c1ccc([C@H](C)Nc2nccc3c2CN(CC)C3=O)cc1 [Compound 12, (S)-ethyl-4-(1-(2-ethyl-1-oxo-2,3-dihydro-1H-pyrrolo[3,4-c]pyridin-4-ylamino)ethyl)benzoate]
- IC50 (IDH1 R132C): 10 to 15 µM

SMILES: CCN1Cc2c(ccnc2N[C@@H](C)c2ccc(C(=O)Nc3ccccc3)cc2)C1=O [Compound 13, (S)-4-(1-(2-ethyl-1-oxo-2,3-dihydro-1H-pyrrolo[3,4-c]pyridin-4-ylamino)ethyl)-N-phenylbenzamide]
- IC50 (IDH1 R132C): 10 to 15 µM

SMILES: CCN1Cc2c(ccnc2N[C@@H](C)c2ccc(-c3cn(C)nn3)cc2)C1=O [Compound 14, (S)-2-ethyl-4-(1-(4-(1-methyl-1H-1,2,3-triazol-4-yl)phenyl)ethylamino)-2,3-dihydro-1H-pyrrolo[3,4-c]pyridin-1-one]
- IC50 (IDH1 R132C): 10 to 15 µM

SMILES: CCN1Cc2c(ccnc2N[C@@H](C)c2ccc(Oc3cccc(C)c3)cc2)C1=O [Compound 15, (S)-2-ethyl-4-((1-(4-(m-tolyloxy)phenyl)ethyl)amino)-2,3-dihydro-1H-pyrrolo[3,4-c]pyridin-1-one]
- IC50 (IDH1 R132C): ≤ 1.5 µM

SMILES: CCN1Cc2c(ccnc2N[C@@H](C)c2ccc(Oc3ccccc3C)cc2)C1=O [Compound 17, (S)-2-ethyl-4-(1-(4-(o-tolyloxy)phenyl)ethylamino)-2,3-dihydro-1H-pyrrolo [3,4-c]pyridin-1-one]
- IC50 (IDH1 R132C): ≤ 1.5 µM

SMILES: CCN1Cc2c(ccnc2N[C@@H](C)c2ccc(Oc3ccccc3)cc2)C1=O [Compound 18, (S)-2-ethyl-4-(1-(4-phenoxyphenyl)ethylamino)-2,3-dihydro-1H-pyrrolo[3,4-c]pyridin-1-one]
- IC50 (IDH1 R132C): ≤ 1.5 µM

SMILES: CCN1Cc2c(ccnc2N[C@@H](C)c2ccc(Oc3ccc(OC)cc3)cc2)C1=O [Compound 19, (S)-2-ethyl-4-(1-(4-(4-methoxyphenoxy)phenyl)ethylamino)-2,3-dihydro-1H-pyrrolo[3,4-c]pyridin-1-one]
- IC50 (IDH1 R132C): ≤ 1.5 µM

SMILES: CCN1Cc2c(ccnc2N[C@@H](C)c2ccc(Oc3ccc(F)cc3)cc2)C1=O [Compound 20, (S)-2-ethyl-4-(1-(4-(4-fluorophenoxy)phenyl)ethylamino)-2,3-dihydro-1H-pyrrolo[3,4-c]pyridin-1-one]
- IC50 (IDH1 R132C): 1.5 to 10 µM

SMILES: Cc1ncc2n1-c1ccc(Cl)cc1C(c1ccccc1F)=NC2 [Positive control, Midazolam, reference compound]
- K ([1]; dog liver microsome): 0.140 min⁻¹
- microsomal CLint at 1 μM ([1]; dog): 702 µL/min/mg
- K ([1]; human liver microsome): 0.0612 min⁻¹
- half-life at 1 μM ([1]; human): 11.3 min
- microsomal CLint at 1 μM ([1]; human): 306 µL/min/mg
- K ([1]; monkey liver microsome): 0.211 min⁻¹
- half-life at 1 μM ([1]; monkey): 3.29 min
- microsomal CLint at 1 μM ([1]; monkey): 1050 µL/min/mg
- K ([1]; mouse liver microsome): 0.0964 min⁻¹
- half-life at 1 μM ([1]; mouse): 7.19 min
- microsomal CLint at 1 μM ([1]; mouse): 482 µL/min/mg
- K ([1]; rat liver microsome): 0.174 min⁻¹
- half-life at 1 μM ([1]; rat): 3.98 min
- microsomal CLint at 1 μM ([1]; rat): 871 µL/min/mg

Source: patent publication US10752626B2, “Iso-citrate dehydrogenase (IDH) inhibitor” (SHANGHAI METON PHARMACEUTICAL CO., LTD, priority 2016, dated 2020)
